Results on 27 compounds are retold here after US20260308159A1, “BICYCLIC HETEROARYLAMIDES HAVING GPR68 MODULATING ACTIVITY” (RECURSION PHARMACEUTICALS, INC., priority 2023, published 2026).

Where two headings read alike, the source gives them in different places.

The experiment concerns the target T1, human GPR68 (Homo sapiens, UniProt Q15743).
T1 construct: encoding full-length human GPR68 (uniprot ID: Q15743); expressed in transfected cells; host or cells: HEK293T
Description: GPR68 Biochemical Assay (Promega GloSensor cAMP assay, GPR68 antagonism). The experiment is classed as cell-based. Particulars: 15 min. On the procedure: GPR68 antagonism was determined using the Promega GloSensor™ CAMP assay (F. I. Wang et al., Methods 2021, S1046-2023 (21) 00249-8). HEK293T cells (obtained from ECACC, Cat 12022001, Lot no. 17E044) were cultured in T175 flasks (Greiner, Cat 660175) in DMEM (Gibco, Cat 11995-065) supplemented with 10% Fetal Bovine Serum (Gibco Cat 16000-044), and 100 u/mL Pen-Strep (Gibco, Cat 15140) at 37° C. and 5% CO2. GPR68 expression was achieved by transient transfection with a mammalian expression plasmid encoding full-length human GPR68 (uniprot ID: Q15743) under control of a CMV promoter. The day before transfection, cell media was aspirated and HEK293T cells were incubated with accutase (Sigma, Cat A6964) for 3-4 minutes 37° C. and 5% CO2 before being manually detached with excess DMEM and trituration. Cell density was determined by automated cell counting (Countess, Invitrogen) and adjusted to 6×10^6 cells/20 mL and transferred to 15 cm dishes (Thermo Fisher, Cat 130183) for overnight incubation at 37° C. and 5% CO2. The next day separate mammalian expression plasmids encoding hGPR68 (4 μg) and Promega GloSensor (8 μg) were diluted to 1 mL in Opti-MEM (Thermo Fisher Scientific, Cat 31985070) and incubated with 30 μL of lipofectamine 3000 (also diluted to 1 mL in Opti-MEM) for 15 minutes at room temperature and subsequently added dropwise to the plated cells. Post transfection cells were then incubated at 37° C. and 5% CO2 for at least 16 hours before transfer to assay plates the following day. Transfer was conducted by washing cells with PBS and incubating with accutase for 3-4 minutes 37° C. and 5% CO2 before being manually detached with excess DMEM and mild trituration. The suspension was then centrifuged at 192 RCF for 4 minutes in a 50 mL centrifuge tube (Greiner, Cat 227261).
Supernatant was removed by aspiration and the cell pellet was resuspended in DMEM+1% dialysed FBS (Gibco, Cat 26400-044) and 100 u/mL Pen-Strep to a cell density of 500 cells/μL. Cells were plated into poly-L-Lysine coated 384-well white assay plates (Corning, Cat 3570) at a final volume of 40 µL and a density of 20,000 cells/well before overnight incubation at 37° C. and 5% CO2. The following day media was manually ejected from the 384-well assay plate and replaced with 10 μL GloSensor substrate (Promega, Cat E1291) prepared in pH 8.0 assay buffer (1×HBSS, 10 mM HEPES, 10 mM MOPS). Cells were incubated with this solution for 60 minutes at room temperature in the dark. Test compounds or an equivalent volume of DMSO (vehicle) were added to compounds plates to create a 9-point, half-log concentration series for each compound with a maximum final assay concentration of 50 μM and a consistent final DMSO concentration of 0.5%. Assay buffer with 0.1% BSA and 0.01% ascorbic acid was prepared at three pHs: pH 8.0, pH 5.5 and pH 4.5. pH 8.0 and 4.5 were added to the compound plate as maximum and minimum effect controls whilst pH 5.5 was added to all compound wells to stimulate GPR68 to a level corresponding to […] of maximal stimulation after addition to the cells already in pH 8.0 (assay acceptance criteria range 70-90%). DMSO/Compound and buffer was added to the plated cells containing the GloSensor substrate and incubated for 15 minutes at room temperature before being read on a microplate reader (BMG PHERAstar, optic module LUM Plus with Gain 3600). Data was exported and analysed in excel and Graphpad prism (version 9). Assay QC acceptance criteria required the maximum and minimum controls to return a Z′≥0.5, the EC80 to be 80%±10% of expected and the reference ligand pIC50 to be within one-half-log unit of its historical IC50. Percent inhibition was calculated using the mean EC80 (pH 5.5) and mean minimum effect control (pH 8.0). Data were plotted as percentage inhibition, average±SEM. IC50, Emax, Emin, Actual max, actual min, R^2 and fit confidence were calculated using Graphpad Prism's sigmoidal dose-response function.

Setting [1] is: hGPR68 IC50, HEK293T cells transiently expressing hGPR68, antagonism of pH 5.5 stimulated cAMP.
The mark [2] stands for this setting: HEK293T cells transiently expressing hGPR68, antagonism of pH 5.5 stimulated cAMP, read-out: hGPR68 IC50.

T1 sequence (Q15743 whole entry): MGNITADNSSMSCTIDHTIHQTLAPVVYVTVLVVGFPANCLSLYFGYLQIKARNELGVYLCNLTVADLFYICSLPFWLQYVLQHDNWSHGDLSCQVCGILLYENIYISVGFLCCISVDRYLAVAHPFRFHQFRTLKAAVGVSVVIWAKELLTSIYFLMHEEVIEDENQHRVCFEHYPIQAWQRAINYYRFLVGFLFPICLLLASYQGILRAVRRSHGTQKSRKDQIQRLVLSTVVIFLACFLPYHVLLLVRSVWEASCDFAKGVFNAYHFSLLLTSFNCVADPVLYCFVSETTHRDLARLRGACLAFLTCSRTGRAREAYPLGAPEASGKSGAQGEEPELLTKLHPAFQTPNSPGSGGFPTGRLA

Turning to `Cc1cnc2c(C(N)=O)c(C)nn2c1C(=O)NC1CC(F)(F)C1` [Compound 38, N7-(3,3-difluorocyclobutyl)-2,6-dimethyl-pyrazolo[1,5-a]pyrimidine-3,7-dicarboxamide], the half-maximal inhibitory concentration (IC50) (as a rule, the point on the concentration scale where inhibition reaches its midpoint) under setting [1] was 5000 to 50000 nM.
Same read-out and setting: for `COCc1cc(C(=O)NC2CC(F)(F)C2)n2nc(C)c(C(N)=O)c2n1` [Compound 39, N7-(3,3-difluorocyclobutyl)-5-(methoxymethyl)-2-methyl-pyrazolo[1,5-a]pyrimidine-3,7-dicarboxamide] the value was 500 to 5000 nM.
In the case of `CNC(=O)c1c(-c2ccccc2)nn2c(C(=O)NC3Cc4ccccc4C3)cccc12` [Compound 40, N7-indan-2-yl-N3-methyl-2-phenyl-pyrazolo[1,5-a]pyridine-3,7-dicarboxamide], under setting [2], the 50% inhibitory concentration (IC50) fell in the range of 50000 to 100000 nM.
In the case of `COc1cc(C(=O)NC2CC(F)(F)C2)n2nc(C)c(C(N)=O)c2n1` [Compound 41, N7-(3,3-difluorocyclobutyl)-5-methoxy-2-methyl-pyrazolo[1,5-a]pyrimidine-3,7-dicarboxamide], under setting [1], the IC50 is 500 to 5000 nM.
In the case of `Cc1cc(C(=O)NC2CC(F)(F)C2)n2nc(C)c(C(N)=O)c2n1` [Compound 42, N7-(3,3-difluorocyclobutyl)-2,5-dimethyl-pyrazolo[1,5-a]pyrimidine-3,7-dicarboxamide], under setting [2], the 50% inhibitory concentration (IC50) was in the range of 50 to 500 nM.
Compound `NC(=O)c1c(C2CCCO2)nn2c(C(=O)NC3CC(F)(F)C3)ccnc12` (stereo not drawn) [Compound 43, N7-(3,3-difluorocyclobutyl)-2-tetrahydrofuran-2-yl-pyrazolo[1,5-a]pyrimidine-3,7-dicarboxamide] had an IC50 under setting [1] of 50 to 500 nM.
Same read-out and setting: for `NC(=O)c1c(C2CCCO2)nn2c(C(=O)NC3Cc4ccccc4C3)ccnc12` (stereo not drawn) [Compound 44, N7-indan-2-yl-2-tetrahydrofuran-2-yl-pyrazolo[1,5-a]pyrimidine-3,7-dicarboxamide] the value was 50 to 500 nM; for `NC(=O)c1c(C2CCOC2)nn2c(C(=O)NC3CC(F)(F)C3)ccnc12` (stereo not drawn) [Compound 45, N7-(3,3-difluorocyclobutyl)-2-tetrahydrofuran-3-yl-pyrazolo[1,5-a]pyrimidine-3,7-dicarboxamide], 500 to 5000 nM.
Take `Cc1nn2c(C(=O)NC3Cc4ccccc4C3)ccnc2c1C(N)=O` [Compound 46, N7-indan-2-yl-2-methyl-pyrazolo[1,5-a]pyrimidine-3,7-dicarboxamide]: the 50% inhibitory concentration (IC50) under setting [2] is less than 50 nM.
On to `Cc1nn2c(C(=O)NC3COc4ccccc4C3)ccnc2c1C(N)=O` (stereo not drawn) [Compound 47, N7-chroman-3-yl-2-methyl-pyrazolo[1,5-a]pyrimidine-3,7-dicarboxamide], for which, under setting [2], the IC50 was in the range of 500 to 5000 nM.
As to `Cc1nn2c(C(=O)NC3CC(F)(F)C3)ccnc2c1C(N)=O` [Compound 48, N7-(3,3-difluorocyclobutyl)-2-methyl-pyrazolo[1,5-a]pyrimidine-3,7-dicarboxamide], the half-maximal inhibitory concentration (IC50) under setting [2] is 50 to 500 nM.
Still for that read-out and setting: for `Cc1nn2c(C(=O)NC3Cc4cccnc4C3)ccnc2c1C(N)=O` (stereo not drawn) [Compound 49, N7-(6,7-dihydro-5H-cyclopenta[b]pyridin-6-yl)-2-methyl-pyrazolo[1,5-a]pyrimidine-3,7-dicarboxamide] the value was 500 to 5000 nM; for `Cc1nn2c(C(=O)N[C@H]3C[C@@H](C#N)C3)ccnc2c1C(N)=O` [Compound 50, N7-(cis-3-cyanocyclobutyl)-2-methyl-pyrazolo[1,5-a]pyrimidine-3,7-dicarboxamide], 500 to 5000 nM.
On the same count and under the same terms, for `Cc1nn2c(C(=O)NC3Cc4ccc(Cc5ccccc5)cc4C3)ccnc2c1C(N)=O` (stereo not drawn) [Compound 51, N7-(5-benzylindan-2-yl)-2-methyl-pyrazolo[1,5-a]pyrimidine-3,7-dicarboxamide] the value was 5000 to 50000 nM; for `Cc1nn2c(C(=O)NC3Cc4ccncc4C3)ccnc2c1C(N)=O` (stereo not drawn) [Compound 52, N7-(6,7-dihydro-5H-cyclopenta[c]pyridin-6-yl)-2-methyl-pyrazolo[1,5-a]pyrimidine-3,7-dicarboxamide], 5000 to 50000 nM; for `Cc1nn2c(C(=O)N[C@H]3C[C@@H](OC(F)(F)F)C3)ccnc2c1C(N)=O` [Compound 53, 2-methyl-N7-[cis-3-(trifluoromethoxy)cyclobutyl]pyrazolo[1,5-a]pyrimidine-3,7-dicarboxamide], 50 to 500 nM.
The same measure, in the same setting: for `COCc1nc2c(C(=O)NC3CC(F)(F)C3)ccnn2c1C(N)=O` [Compound 54, N8-(3,3-difluorocyclobutyl)-2-(methoxymethyl)imidazo[1,2-b]pyridazine-3,8-dicarboxamide] the value was less than 50 nM.
With `COCc1nc2c(C(=O)N[C@H]3C[C@@H](OC(F)(F)F)C3)ccnn2c1C(N)=O` [Compound 55, 2-(methoxymethyl)-N8-[cis-3-(trifluoromethoxy)cyclobutyl]imidazo[1,2-b]pyridazine-3,8-dicarboxamide], the IC50 under setting [2] lay within 50 to 500 nM.
For the compound `COCc1nc2c(C(=O)NC3Cc4ccccc4C3)ccnn2c1C(N)=O` [Compound 56, N8-indan-2-yl-2-(methoxymethyl)imidazo[1,2-b]pyridazine-3,8-dicarboxamide], the IC50 under setting [2] is less than 50 nM.
On the same count and under the same terms, with `COCc1nn2c(C(=O)NC3Cc4ccccc4C3)ccnc2c1C(N)=O` [Compound 57, N7-indan-2-yl-2-(methoxymethyl)pyrazolo[1,5-a]pyrimidine-3,7-dicarboxamide] the figure was less than 50 nM; with `COCc1nn2c(C(=O)NC3CC(F)(F)C3)ccnc2c1C(N)=O` [Compound 58, N7-(3,3-difluorocyclobutyl)-2-(methoxymethyl)pyrazolo[1,5-a]pyrimidine-3,7-dicarboxamide], less than 50 nM.
`COCc1nn2c(C(=O)Nc3ccc(C(F)(F)F)cn3)ccnc2c1C(N)=O` [Compound 59, 2-(methoxymethyl)-N7-[5-(trifluoromethyl)-2-pyridyl]pyrazolo[1,5-a]pyrimidine-3,7-dicarboxamide] gave a concentration for half-maximal inhibition (IC50) under setting [1] of less than 50 nM.
Turning to `COCc1nn2c(C(=O)NC3Cc4cccnc4C3)ccnc2c1C(N)=O` (stereo not drawn) [Compound 60, N7-(6,7-dihydro-5H-cyclopenta[b]pyridin-6-yl)-2-(methoxymethyl)pyrazolo[1,5-a]pyrimidine-3,7-dicarboxamide], the IC50 under setting [2] is less than 50 nM.
In the case of `COCc1nn2c(C(=O)N[C@H]3C[C@@H](OC(F)(F)F)C3)ccnc2c1C(N)=O` [Compound 61, 2-(methoxymethyl)-N7-[cis-3-(trifluoromethoxy)cyclobutyl]pyrazolo[1,5-a]pyrimidine-3,7-dicarboxamide], under setting [2], the IC50 was less than 50 nM.
For the compound `COCc1nn2c(C(=O)Nc3ccc(CN(C)C)cc3)ccnc2c1C(N)=O` [Compound 62, N7-[4-[(dimethylamino)methyl]phenyl]-2-(methoxymethyl)pyrazolo[1,5-a]pyrimidine-3,7-dicarboxamide], the half-inhibitory concentration (IC50) under setting [2] lay in the range of 500 to 5000 nM.
Same read-out and setting: for `COCc1nn2c(C(=O)NCc3cnn(C)c3)ccnc2c1C(N)=O` [Compound 63, 2-(methoxymethyl)-N7-[(1-methylpyrazol-4-yl)methyl]pyrazolo[1,5-a]pyrimidine-3,7-dicarboxamide] the value was 500 to 5000 nM.
On to `COCc1nn2c(C(=O)Nc3cc(C)cc(C)n3)ccnc2c1C(N)=O` [Compound 64, N7-(4,6-dimethyl-2-pyridyl)-2-(methoxymethyl)pyrazolo[1,5-a]pyrimidine-3,7-dicarboxamide], for which, under setting [2], the IC50 is less than 50 nM.
